Measurements taken from patent publication US20100317052A1, “PROCESS FOR DETECTING HELICOBACTER PYLORI USING ALIPHATIC AMIDES” (priority 2006, published 2010).

Assays:
[1] = Amide incubated in flask comprising only the medium, without any bacteria addition, SPME GC-MS; format: physicochemical; settings: 0.5 mL of 20 mM solution, 60 minutes incubation at 37° C.
Procedure: These compounds were administrated as diluted aqueous solutions (0.5 mL) to the liquid culture media (25 mL), 120 mL glass flasks hermetically sealed and encapsulated with a cap containing a septum.
The collection of the acids that were formed after the amide administration described in 1 was carried out after acidification of the medium with acid tartaric (mimetizing the stomach's pH) and exposing to the flask's vapor phase for 5 minutes at 37° C. a solid-phase microextraction fiber (SPME) coated with carbowax/divinilbenzene (65 μm thickness).
The search in vapor phase for the carboxylic acids generated by the bacterium's aliphatic amidases activity on the amides administrated was carried out by means of gas chromatography using a capillary column of intermediate polarity.
The detection was performed by mass spectrometry comprising 3 scan cycles with selective ion monitoring (SIM) the m/z=74 for the propionic acid and m/z=88 for butyric acid.

H. pylori = experiment: Formation of carboxylic acid from aliphatic amide in H. pylori enriched liquid culture, SPME of vapor phase and GC-MS (SIM); format: cell-based, Helicobacter pylori; settings: for formation of the respective acid in the vapor phase: amide added to medium containing H. pylori (collection cultures and clinical isolates), GC-MS
Procedure: In vitro ex vivo experimental tests were carried out in H. pylori cultures from collections and clinical isolates. […] The experimental tests were performed in vitro ex vivo in H. pylori cultures from collection and clinical isolates enriched in liquid medium (F12) under microaerophilic conditions. These compounds were administrated as diluted aqueous solutions (0.5 mL) to the liquid culture media (25 mL), 120 mL glass flasks hermetically sealed and encapsulated with a cap containing a septum. The collection of the acids that were formed after the amide administration described in 1 was carried out after acidification of the medium with acid tartaric (mimetizing the stomach's pH) and exposing to the flask's vapor phase for 5 minutes at 37° C. a solid-phase microextraction fiber (SPME) coated with carbowax/divinilbenzene (65 μm thickness). The search in vapor phase for the carboxylic acids generated by the bacterium's aliphatic amidases activity on the amides administrated was carried out by means of gas chromatography using a capillary column of intermediate polarity. The detection was performed by mass spectrometry comprising 3 scan cycles with selective ion monitoring (SIM) the m/z=74 for the propionic acid and m/z=88 for butyric acid.

SMILES	chromatographic peak corresponding to propanoic acid [1]	chromatographic area corresponding to the propanoic acid (H. pylori; 0.5 mL of 20 mM solution, medium enriched with H. pylori, 60 minutes incubation at 37° C., vapor phase SPME GC-MS m/z=74)	formation of the respective acid in the vapor phase (H. pylori)	chromatographic peak corresponding to butyric acid [1]	chromatographic area corresponding to the butyric acid (H. pylori; 0.5 mL of 20 mM solution, medium enriched with H. pylori, 60 minutes incubation at 37° C., vapor phase SPME GC-MS m/z=88)
CCC(N)=O [propionamide]	did not produce any chromatographic peak	7.0×10^5	the formation of the respective acids takes place		
CCCC(N)=O [butyramide]			the formation of the respective acids takes place	did not derive any chromatographic peak	6.5×10^5
